Data from ChEMBL document CHEMBL3351853, “Discovery of small molecular inhibitors targeting HIV-1 gp120-CD4 interaction drived from BMS-378806” (Eur J Med Chem, 2014).

Test: Inhibition of HIV-1 gp120/CD4 interaction

EC50: 4 nM
SMILES: C[C@@H]1CN(C(=O)c2ccccc2)CCN1C(=O)C(=O)c1c[nH]c2ccccc12
